Laboratory results: ChEMBL document CHEMBL4354785, “Recent insights into natural product inhibitors of matrix metalloproteinases” (Medchemcomm, 2019)

Key:
[1] = target: T1, Matrix metalloproteinase-9 (Homo sapiens, UniProt P14780); experiment: Inhibition of human MMP9 catalytic domain using Mca-PLGL-Dpa-AR-NH2 as substrate by fluorescence method
[2] = target: 72 kDa type IV collagenase (Homo sapiens, UniProt P08253); experiment: Inhibition of recombinant human MMP2 using fluorescently conjugated gelatin as substrate
Sequence of 72 kDa type IV collagenase (P08253 whole entry, the tested form may be a part): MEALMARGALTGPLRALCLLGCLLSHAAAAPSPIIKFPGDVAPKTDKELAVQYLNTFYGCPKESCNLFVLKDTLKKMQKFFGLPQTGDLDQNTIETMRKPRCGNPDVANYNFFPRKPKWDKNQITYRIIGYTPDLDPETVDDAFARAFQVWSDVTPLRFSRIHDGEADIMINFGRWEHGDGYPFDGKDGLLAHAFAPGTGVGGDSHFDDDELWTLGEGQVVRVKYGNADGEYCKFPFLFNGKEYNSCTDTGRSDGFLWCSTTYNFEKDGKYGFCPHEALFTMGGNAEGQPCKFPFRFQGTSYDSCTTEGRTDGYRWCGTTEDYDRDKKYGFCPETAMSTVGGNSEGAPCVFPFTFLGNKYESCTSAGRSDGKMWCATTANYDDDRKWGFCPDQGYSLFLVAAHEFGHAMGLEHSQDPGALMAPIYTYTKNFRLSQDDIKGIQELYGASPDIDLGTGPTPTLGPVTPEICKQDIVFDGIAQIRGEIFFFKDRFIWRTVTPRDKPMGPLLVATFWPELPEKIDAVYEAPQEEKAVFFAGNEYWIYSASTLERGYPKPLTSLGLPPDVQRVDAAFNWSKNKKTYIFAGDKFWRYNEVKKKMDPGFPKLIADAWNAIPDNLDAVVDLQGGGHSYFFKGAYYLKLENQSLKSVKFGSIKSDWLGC

[3] = target: T1, Matrix metalloproteinase-9; experiment: Inhibition of human MMP9 (107 to 707 residues) expressed in Escherichia coli BL21(DE3) cells

T1 sequence (P14780 whole entry, the tested form may be a part): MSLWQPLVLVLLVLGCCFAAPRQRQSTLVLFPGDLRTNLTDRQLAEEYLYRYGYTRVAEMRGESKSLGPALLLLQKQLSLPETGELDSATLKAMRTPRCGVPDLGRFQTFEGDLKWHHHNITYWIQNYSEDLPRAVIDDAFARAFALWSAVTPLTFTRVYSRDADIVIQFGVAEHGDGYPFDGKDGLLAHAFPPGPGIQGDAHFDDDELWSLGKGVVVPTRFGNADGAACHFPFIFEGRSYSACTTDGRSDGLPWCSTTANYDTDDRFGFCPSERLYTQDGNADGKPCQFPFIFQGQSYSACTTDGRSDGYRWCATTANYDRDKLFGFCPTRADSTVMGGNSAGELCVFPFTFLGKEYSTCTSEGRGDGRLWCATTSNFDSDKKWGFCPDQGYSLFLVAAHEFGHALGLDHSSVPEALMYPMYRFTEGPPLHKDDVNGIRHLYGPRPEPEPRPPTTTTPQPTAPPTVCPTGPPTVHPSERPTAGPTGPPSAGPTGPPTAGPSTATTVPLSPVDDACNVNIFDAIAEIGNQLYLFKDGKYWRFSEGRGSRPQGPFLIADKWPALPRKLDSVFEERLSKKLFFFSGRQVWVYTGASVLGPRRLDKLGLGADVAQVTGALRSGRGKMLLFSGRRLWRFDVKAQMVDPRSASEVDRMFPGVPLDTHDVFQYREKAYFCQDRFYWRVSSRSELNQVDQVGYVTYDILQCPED

SMILES | IC50 [2] [µM] | other results
COc1ccc(/C=C/C(=O)O[C@H](C(=O)O)[C@](O)(Cc2ccc(O)c(O)c2)C(=O)O)cc1O [CIMICIFUGIC ACID B] | – | IC50 [1]: 13.4 µM
CCCCCC/C=C\CCCCCCCc1cccc(O)c1C(=O)O [GINGKOLIC ACID] | 6.3 | –
CCCCC/C=C/CCCCCCCc1cccc(O)c1C(=O)O | 6.5 | –
O=C(/C=C/c1ccc(O)c(O)c1)Oc1ccc2c(c1)C(=O)OCC2 | – | IC50 [3]: 1.39 µM
